How the values were obtained:
HL-60 = test: In vitro one dose primary anticancer assay, HL-60; type: cell-based, human; conditions: Leukemia (HL-60), 10^−5 Molar concentration
Description: (§1) Anticancer activity: In vitro biological activity studies were carried out at the National Cancer Institute (USA).
(§2) The compounds 5a-b evaluated for in vitro anticancer activity against sixty human tumour cells derived from nine cancer types (leukemia, non-small-cell lung, colon, CNS, melanoma, ovarian, prostate, and breast cancer) as shown in Table 1. For each compound, dose response curves for each cell line were measured at a minimum of five concentrations at 10 fold dilutions. A protocol of 48 h continuous drug exposure was used and a sulforhodamine B (SRB) protein assay was used to estimate cell viability or growth. The concentration causing 50% cell growth inhibition (GI50), total cell growth inhibition (TGI 0% growth) and 50% cell death (LC50, −50% growth) compared with the control was calculated. […] The MG MID of log TGI and log LC50 have shown similar pattern to the log GI50 MG MID. The other compounds 9a-c evaluated for in vitro one dose anticancer activity against nine human tumor cell panels containing sixty cell lines in percent growth inhibition values are listed in Table 3.

SF-295 = test: In vitro one dose primary anticancer assay, SF-295; type: cell-based, human; conditions: CNS (SF-295), 10^−5 Molar concentration
Description: as §1, §2

OVCAR8 = test: In vitro one dose primary anticancer assay, OVCAR8; type: cell-based, human; conditions: Ovarian (OVCAR8), 10^−5 Molar concentration
Description: as §1, §2

UO-31 = test: In vitro one dose primary anticancer assay, UO-31; type: cell-based, human; conditions: Renal (UO-31), 10^−5 Molar concentration
Description: as §1, §2

T-47D [1] = test: In vitro one dose primary anticancer assay, T-47D; type: cell-based, human; conditions: Breast (T-47D), 10^−5 Molar concentration
Description: as §1, §2

OVCAR-4 = test: NCI in vitro anticancer SRB assay, OVCAR-4; type: cell-based, human; conditions: OVCAR-4, Ovarian Cancer
Description: as §1, §2

SK-MEL-28 = test: NCI in vitro anticancer SRB assay, SK-MEL-28; type: cell-based, human; conditions: SK-MEL-28, Melanoma
Description: as §1, §2

MDA-MB-231/ATCC = test: NCI in vitro anticancer SRB assay, MDA-MB-231/ATCC; type: cell-based, human; conditions: Breast Cancer
Description: as §1, §2

SF-539 = test: NCI in vitro anticancer SRB assay, SF-539; type: cell-based, human; conditions: SF-539, CNS Cancer
Description: as §1, §2

SW-620 = test: NCI in vitro anticancer SRB assay, SW-620; type: cell-based, human; conditions: SW-620, Colon Cancer
Description: as §1, §2

DU 145 = test: NCI in vitro anticancer SRB assay, DU 145; type: cell-based, human; conditions: DU 145, Prostate Cancer
Description: as §1, §2

U251 = test: NCI in vitro anticancer SRB assay, U251; type: cell-based, human; conditions: U251, CNS Cancer
Description: as §1, §2

EKVX = test: NCI in vitro anticancer SRB assay, EKVX; type: cell-based, human; conditions: Non-Small Cell Lung Cancer
Description: as §1, §2

sixty human tumour cells = test: In vitro cytotoxicity, mean graph midpoints over all cell lines; type: cell-based; conditions: mean graph midpoint
Description: as §1, §2

786-0 = test: NCI in vitro anticancer SRB assay, 786-0; type: cell-based, human; conditions: 786-0, Renal Cancer
Description: as §1, §2

BT-549 = test: NCI in vitro anticancer SRB assay, BT-549; type: cell-based, human; conditions: BT-549, Breast Cancer
Description: as §1, §2

MCF7 = test: NCI in vitro anticancer SRB assay, MCF7; type: cell-based, human; conditions: MCF7, Breast Cancer
Description: as §1, §2

K-562 = test: NCI in vitro anticancer SRB assay, K-562; type: cell-based, human; conditions: K-562, Leukemia
Description: as §1, §2

NCI-H322M = test: NCI in vitro anticancer SRB assay, NCI-H322M; type: cell-based, human; conditions: Non-Small Cell Lung Cancer
Description: as §1, §2

HCT-116 = test: NCI in vitro anticancer SRB assay, HCT-116; type: cell-based, human; conditions: HCT-116, Colon Cancer
Description: as §1, §2

KM12 = test: NCI in vitro anticancer SRB assay, KM12; type: cell-based, human; conditions: KM12, Colon Cancer
Description: as §1, §2

MALME-3M = test: NCI in vitro anticancer SRB assay, MALME-3M; type: cell-based, human; conditions: Melanoma
Description: as §1, §2

SK-MEL-5 = test: NCI in vitro anticancer SRB assay, SK-MEL-5; type: cell-based, human; conditions: SK-MEL-5, Melanoma
Description: as §1, §2

RXF 393 = test: NCI in vitro anticancer SRB assay, RXF 393; type: cell-based, human; conditions: RXF 393, Renal Cancer
Description: as §1, §2

HS 578T = test: NCI in vitro anticancer SRB assay, HS 578T; type: cell-based, human; conditions: Breast Cancer
Description: as §1, §2

T-47D [2] = test: NCI in vitro anticancer SRB assay, T-47D; type: cell-based, human; conditions: Breast Cancer
Description: as §1, §2

SNB-75 = test: NCI in vitro anticancer SRB assay, SNB-75; type: cell-based; conditions: Homo sapiens, SNB-75, CNS Cancer
Description: as §1, §2

[3] = log10 of drug concentration causing 50% cell death (−50%)
[4] = log10 of drug concentration causing total cell growth inhibition (0% growth)
[5] = log10 of drug molar concentration causing 50% cell growth inhibition
[6] = Homo sapiens, 48 h drug exposure, SRB
[7] = Homo sapiens, repeat test values

Compound: 2-{4-[4-(4-[4-(6-[4-methylpiperazino]-2-benzimidazolyl)phenoxy]butyl)piperazino]butyl}napthalimide [Compound 9a]
- % GI (percent growth inhibition) (HL-60): 84%
- % GI (percent growth inhibition) (SF-295): 71%
- % GI (percent growth inhibition) (OVCAR8): 77%
- % GI (percent growth inhibition) (UO-31): 85%
- % GI (percent growth inhibition) (T-47D [1]): 64%

Compound: 2-{4-[4-(4-[4-(6-morpholino-2-benzimidazolyl)phenoxy]butyl)piperazino]butyl}napthalimide [Compound 9b]
- % GI (percent growth inhibition) (HL-60): 50%
- % GI (percent growth inhibition) (SF-295): 50%
- % GI (percent growth inhibition) (OVCAR8): 78%
- % GI (percent growth inhibition) (UO-31): 68%
- % GI (percent growth inhibition) (T-47D [1]): 50%

Compound: 2-{4-[4-(6-morpholino-2-benzimidazolyl)phenoxy]butyl}naphthalimide [Compound 5b]
- GI50 (OVCAR-4; 48 h drug exposure, SRB): 1.47 µM
- GI50 (OVCAR-4; repeat test values): 2.21 µM
- GI50 (SK-MEL-28; 48 h drug exposure, SRB): 1.3 µM
- GI50 (SK-MEL-28; repeat test values): 1.56 µM
- GI50 (MDA-MB-231/ATCC; 48 h drug exposure, SRB): 2.51 µM
- GI50 (MDA-MB-231/ATCC; repeat test values): 4.25 µM
- GI50 (SF-539; 48 h drug exposure, SRB): 1.7 µM
- GI50 (SF-539; repeat test values): 1.6 µM
- GI50 (SW-620; 48 h drug exposure, SRB): 3.19 µM
- GI50 (SW-620; repeat test values): 4.49 µM
- GI50 (DU 145; 48 h drug exposure, SRB): 3.27 µM
- GI50 (DU 145; repeat test values): 4.56 µM
- GI50 (U251; 48 h drug exposure, SRB): 1.41 µM
- GI50 (U251; repeat test values): 1.66 µM
- GI50 (EKVX; 48 h drug exposure, SRB): 12.2 µM
- GI50 (EKVX; repeat test values): 25.4 µM
- Log LC50 MG MID (sixty human tumour cells; [3]): −4.46
- Log TGI MG MID (sixty human tumour cells; [4]): −4.94
- Log GI50 MG MID (sixty human tumour cells; [5]): −5.54
- Log GI50 MG MID (sixty human tumour cells; repeated test values): −5.35
- Log LC50 MG MID (sixty human tumour cells; repeated test values): −4.27
- Log TGI MG MID (sixty human tumour cells; repeated test values): −4.71
- GI50 (786-0; 48 h drug exposure, SRB): 1.21 µM
- GI50 (786-0; repeat test values): 1.37 µM
- GI50 (BT-549; 48 h drug exposure, SRB): 1.45 µM
- GI50 (BT-549; repeat test values): 1.54 µM
- GI50 (MCF7; 48 h drug exposure, SRB): 3.33 µM
- GI50 (MCF7; repeat test values): 2.56 µM
- GI50 (K-562; 48 h drug exposure, SRB): 2.97 µM
- GI50 (K-562; repeat test values): 3.25 µM
- GI50 (NCI-H322M; 48 h drug exposure, SRB): 0.11 µM
- GI50 (NCI-H322M; repeat test values): 40.7 µM
- GI50 (HCT-116; 48 h drug exposure, SRB): 1.76 µM
- GI50 (KM12; 48 h drug exposure, SRB): 1.14 µM
- GI50 (KM12; repeat test values): 7.25 µM
- GI50 (MALME-3M; 48 h drug exposure, SRB): 0.09 µM
- GI50 (MALME-3M; repeat test values): 3.34 µM
- GI50 (SK-MEL-5; 48 h drug exposure, SRB): 1.44 µM
- GI50 (SK-MEL-5; repeat test values): 1.77 µM
- GI50 (RXF 393; 48 h drug exposure, SRB): 0.85 µM
- GI50 (RXF 393; repeat test values): 0.34 µM
- GI50 (HS 578T; 48 h drug exposure, SRB): 0.99 µM
- GI50 (HS 578T; repeat test values): 4.68 µM
- GI50 (T-47D [2]; 48 h drug exposure, SRB): 2.2 µM
- GI50 (T-47D [2]; repeat test values): 4.32 µM

Compound: 2-{5-[4-(5-[4-(6-morpholino-2-benzimidazolyl)phenoxy]pentyl)piperazino]pentyl}napthalimide [Compound 9c]
- % GI (percent growth inhibition) (HL-60): 97%
- % GI (percent growth inhibition) (SF-295): 84%
- % GI (percent growth inhibition) (OVCAR8): 89%
- % GI (percent growth inhibition) (UO-31): 96%
- % GI (percent growth inhibition) (T-47D [1]): 99%

Compound: CN1CCN(c2ccc3nc(-c4ccc(OCCCN5C(=O)c6cccc7cccc(c67)C5=O)cc4)[nH]c3c2)CC1 [Compound 5a, 2-{3-[4-(6-[4-methylpiperazino]2-benzimidazolyl)phenoxy]propyl}napthalimide]
- GI50 (SNB-75; 48 h drug exposure, SRB): 0.02 µM
- GI50 (SNB-75; repeat test values): 1.77 µM
- GI50 (OVCAR-4; [6]): 1.58 µM
- GI50 (OVCAR-4; [7]): 1.85 µM
- GI50 (SK-MEL-28; [6]): 1.48 µM
- GI50 (SK-MEL-28; [7]): 1.8 µM
- GI50 (MDA-MB-231/ATCC; [6]): 1.51 µM
- GI50 (MDA-MB-231/ATCC; [7]): 1.41 µM
- GI50 (SF-539; [6]): 1.64 µM
- GI50 (SF-539; [7]): 1.86 µM
- GI50 (SW-620; [6]): 1.7 µM
- GI50 (SW-620; [7]): 1.83 µM
- GI50 (DU 145; [6]): 1.45 µM
- GI50 (DU 145; [7]): 1.74 µM
- GI50 (U251; Homo sapiens, U-251, 48 h drug exposure, SRB): 1.78 µM
- GI50 (U251; Homo sapiens, U-251, repeat test values): 1.97 µM
- GI50 (EKVX; [6]): 1.37 µM
- GI50 (EKVX; [7]): 1.83 µM
- Log LC50 MG MID (sixty human tumour cells; [3]): −4.20
- Log TGI MG MID (sixty human tumour cells; [4]): −4.80
- Log GI50 MG MID (sixty human tumour cells; [5]): −5.34
- Log GI50 MG MID (sixty human tumour cells; repeated test values): −5.62
- Log LC50 MG MID (sixty human tumour cells; repeated test values): −4.39
- Log TGI MG MID (sixty human tumour cells; repeated test values): −5.08
- GI50 (786-0; [6]): 1.53 µM
- GI50 (786-0; [7]): 1.74 µM
- GI50 (BT-549; [7]): 4.8 µM
- GI50 (MCF7; [6]): 1.44 µM
- GI50 (MCF7; [7]): 1.5 µM
- GI50 (K-562; Homo sapiens, K562, 48 h drug exposure, SRB): 0.49 µM
- GI50 (K-562; Homo sapiens, K562, repeat test values): 1.58 µM
- GI50 (NCI-H322M; [6]): 1.81 µM
- GI50 (NCI-H322M; [7]): 1.64 µM
- GI50 (HCT-116; [6]): 1.76 µM
- GI50 (HCT-116; [7]): 1.64 µM
- GI50 (KM12; [6]): 1.72 µM
- GI50 (KM12; [7]): 2.03 µM
- GI50 (MALME-3M; [6]): 7.66 µM
- GI50 (MALME-3M; [7]): 2.56 µM
- GI50 (SK-MEL-5; [6]): 1.69 µM
- GI50 (SK-MEL-5; [7]): 1.6 µM
- GI50 (RXF 393; [7]): 10 µM
- GI50 (HS 578T; [6]): 2.1 µM
- GI50 (HS 578T; [7]): 2.11 µM
- GI50 (T-47D [2]; Homo sapiens, T47D, 48 h drug exposure, SRB): 1.54 µM
- GI50 (T-47D [2]; Homo sapiens, T47D, repeat test values): 2.66 µM

Source: patent publication US8288387B2, “Napthalimide-benzimidazole hybrids as potential antitumor agents and process for the preparation thereof” (Council of Scientific & Industrial Research, priority 2008, dated 2012)
